Source: patent US6689773B2, “Uracil substituted phenyl sulfamoyl carboxamides” (BASF Aktiengesellschaft, priority 2000, dated 2004)

Legend:
Type in all cases: in vivo
[1] = system: SETVI, Green foxtail, Setaria viridis, (L.)Beau; assay: Preemergence herbicidal evaluation (Example 148); conditions: rating scale 0-9, two to four weeks after treatment
Procedure, shortened: (§1)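 Greenhouse cups of separately sown species were treated pre-emergence at about 0.125–0.250 kg/ha. Evaluation was visual, 2–4 weeks after spraying, with averaged values for repeated tests.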

[2] = system: ECHCG, Barnyardgrass, Echinochloa crusgalli, (L.)Beau; assay: Preemergence herbicidal evaluation (Example 148); conditions: rating scale 0-9, two to four weeks after treatment
Procedure, shortened: as §1

[3] = system: TRZAW, Winter wheat, Tritium Aestivum, L. (Winter); assay: Preemergence herbicidal evaluation (Example 148); conditions: rating scale 0-9, two to four weeks after treatment
Procedure, shortened: as §1

[4] = system: IPOHE, Morningglory, Ivyleaf, Ipomoea hederacea, (L)Jacq.; assay: Preemergence herbicidal evaluation (Example 148); conditions: rating scale 0-9, two to four weeks after treatment
Procedure, shortened: as §1

[5] = system: CHEAL, Lambsquarters, Chenopodium album, L. Common; assay: Preemergence herbicidal evaluation (Example 148); conditions: rating scale 0-9, two to four weeks after treatment
Procedure, shortened: as §1

[6] = system: AMBEL, Ragweed, Common, Ambrosia artemiisifolia, L.; assay: Preemergence herbicidal evaluation (Example 148); conditions: rating scale 0-9, two to four weeks after treatment
Procedure, shortened: as §1

[7] = system: ABUTH, Velvetleaf, Abutilon theophrasti, Medic.; assay: Preemergence herbicidal evaluation (Example 148); conditions: rating scale 0-9, two to four weeks after treatment
Procedure, shortened: as §1

[8] = system: GLXMA, Soybean, Glycine max, (L.) Merr.; assay: Preemergence herbicidal evaluation (Example 148); conditions: rating scale 0-9, two to four weeks after treatment
Procedure, shortened: as §1

[9] = system: ZEAMX, Field corn, Zea mays L.; assay: Preemergence herbicidal evaluation (Example 148); conditions: rating scale 0-9, two to four weeks after treatment
Procedure, shortened: as §1

[10] = system: XANST, Cocklebur, Xanthium strumariam; assay: Preemergence herbicidal evaluation (Example 148); conditions: rating scale 0-9, two to four weeks after treatment
Procedure, shortened: as §1

[11] = system: DIGSA, Crabgrass, (Hairy) L, Digitaria sanguinalis, (L)Scop; assay: Preemergence herbicidal evaluation (Example 148); conditions: rating scale 0-9, two to four weeks after treatment
Procedure, shortened: as §1

[12] = system: ALOMY, Blackgrass, Alopecurus myosuroides; assay: Preemergence herbicidal evaluation (Example 148); conditions: rating scale 0-9, two to four weeks after treatment
Procedure, shortened: as §1

[13] = system: SETVI, Green foxtail, Setaria viridis, (L.)Beau; assay: Postemergence herbicidal evaluation (Example 147); conditions: rating scale 0-9, two to three weeks after treatment
Procedure, shortened: (§2)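 Spray carrier: 80/20 acetone/water, 1.0% SUN-IT II methylated seed oil; rate about 0.016 to 0.032 kg/ha at 40 psi onto two-week seedlings. Assessment: plant stand, vigor, chlorosis and malformation scored 0-9 versus control, two to three weeks after treatment.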

[14] = system: ECHCG, Barnyardgrass, Echinochloa crusgalli, (L.)Beau; assay: Postemergence herbicidal evaluation (Example 147); conditions: rating scale 0-9, two to three weeks after treatment
Procedure, shortened: as §2

[15] = system: TRZAW, Winter wheat, Tritium Aestivum, L. (Winter); assay: Postemergence herbicidal evaluation (Example 147); conditions: rating scale 0-9, two to three weeks after treatment
Procedure, shortened: as §2

[16] = system: IPOHE, Morningglory, Ivyleaf, Ipomoea hederacea, (L)Jacq.; assay: Postemergence herbicidal evaluation (Example 147); conditions: rating scale 0-9, two to three weeks after treatment
Procedure, shortened: as §2

[17] = system: CHEAL, Lambsquarters, Chenopodium album, L. Common; assay: Postemergence herbicidal evaluation (Example 147); conditions: rating scale 0-9, two to three weeks after treatment
Procedure, shortened: as §2

[18] = system: AMBEL, Ragweed, Common, Ambrosia artemiisifolia, L.; assay: Postemergence herbicidal evaluation (Example 147); conditions: rating scale 0-9, two to three weeks after treatment
Procedure, shortened: as §2

[19] = system: ABUTH, Velvetleaf, Abutilon theophrasti, Medic.; assay: Postemergence herbicidal evaluation (Example 147); conditions: rating scale 0-9, two to three weeks after treatment
Procedure, shortened: as §2

[20] = system: GLXMA, Soybean, Glycine max, (L.) Merr.; assay: Postemergence herbicidal evaluation (Example 147); conditions: rating scale 0-9, two to three weeks after treatment
Procedure, shortened: as §2

[21] = system: ZEAMX, Field corn, Zea mays L.; assay: Postemergence herbicidal evaluation (Example 147); conditions: rating scale 0-9, two to three weeks after treatment
Procedure, shortened: as §2

[22] = system: XANST, Cocklebur, Xanthium strumariam; assay: Postemergence herbicidal evaluation (Example 147); conditions: rating scale 0-9, two to three weeks after treatment
Procedure, shortened: as §2

[23] = system: DIGSA, Crabgrass, (Hairy) L, Digitaria sanguinalis, (L)Scop; assay: Postemergence herbicidal evaluation (Example 147); conditions: rating scale 0-9, two to three weeks after treatment
Procedure, shortened: as §2

[24] = system: ALOMY, Blackgrass, Alopecurus myosuroides; assay: Postemergence herbicidal evaluation (Example 147); conditions: rating scale 0-9, two to three weeks after treatment
Procedure, shortened: as §2

CCOC(=O)CN(C)S(N)(=O)=O [compound 53]
Preemergence herbicidal rating SETVI ([1]; rate 0.125 kg/ha): 5.7 | Preemergence herbicidal rating SETVI ([1]; rate 0.25 kg/ha): 7.3 | Preemergence herbicidal rating ECHCG ([2]; rate 0.125 kg/ha): 7.5 | Preemergence herbicidal rating ECHCG ([2]; rate 0.25 kg/ha): 8.4 | Preemergence herbicidal rating TRZAW ([3]; rate 0.125 kg/ha): 1.3 | Preemergence herbicidal rating TRZAW ([3]; rate 0.25 kg/ha): 2.0 | Preemergence herbicidal rating IPOHE ([4]; rate 0.125 kg/ha): 9.0 | Preemergence herbicidal rating IPOHE ([4]; rate 0.25 kg/ha): 9.0 | Preemergence herbicidal rating CHEAL ([5]; rate 0.125 kg/ha): 9.0 | Preemergence herbicidal rating CHEAL ([5]; rate 0.25 kg/ha): 9.0 | Preemergence herbicidal rating AMBEL ([6]; rate 0.125 kg/ha): 8.9 | Preemergence herbicidal rating AMBEL ([6]; rate 0.25 kg/ha): 9.0 | Preemergence herbicidal rating ABUTH ([7]; rate 0.125 kg/ha): 9.0 | Preemergence herbicidal rating ABUTH ([7]; rate 0.25 kg/ha): 9.0 | Preemergence herbicidal rating GLXMA ([8]; rate 0.125 kg/ha): 8.1 | Preemergence herbicidal rating GLXMA ([8]; rate 0.25 kg/ha): 8.8 | Preemergence herbicidal rating ZEAMX ([9]; rate 0.125 kg/ha): 2.3 | Preemergence herbicidal rating ZEAMX ([9]; rate 0.25 kg/ha): 4.3 | Preemergence herbicidal rating XANST ([10]; rate 0.125 kg/ha): 9.0 | Preemergence herbicidal rating XANST ([10]; rate 0.25 kg/ha): 9.0 | Preemergence herbicidal rating DIGSA ([11]; rate 0.125 kg/ha): 8.1 | Preemergence herbicidal rating DIGSA ([11]; rate 0.25 kg/ha): 8.8 | Preemergence herbicidal rating ALMOY ([12]; rate 0.125 kg/ha): 1.3 | Preemergence herbicidal rating ALMOY ([12]; rate 0.25 kg/ha): 2.7 | Postemergence herbicidal rating SETVI ([13]; rate 0.016 kg/ha): 6.4 | Postemergence herbicidal rating SETVI ([13]; rate 0.032 kg/ha): 7.5 | Postemergence herbicidal rating ECHCG ([14]; rate 0.016 kg/ha): 8.1 | Postemergence herbicidal rating ECHCG ([14]; rate 0.032 kg/ha): 8.8 | Postemergence herbicidal rating TRZAW ([15]; rate 0.016 kg/ha): 5.6 | Postemergence herbicidal rating TRZAW ([15]; rate 0.032 kg/ha): 6.2 | Postemergence herbicidal rating IPOHE ([16]; rate 0.016 kg/ha): 8.8 | Postemergence herbicidal rating IPOHE ([16]; rate 0.032 kg/ha): 9.0 | Postemergence herbicidal rating CHEAL ([17]; rate 0.016 kg/ha): 8.1 | Postemergence herbicidal rating CHEAL ([17]; rate 0.032 kg/ha): 8.4 | Postemergence herbicidal rating AMBEL ([18]; rate 0.016 kg/ha): 8.9 | Postemergence herbicidal rating AMBEL ([18]; rate 0.032 kg/ha): 9.0 | Postemergence herbicidal rating ABUTH ([19]; rate 0.016 kg/ha): 9.0 | Postemergence herbicidal rating ABUTH ([19]; rate 0.032 kg/ha): 9.0 | Postemergence herbicidal rating GLXMA ([20]; rate 0.016 kg/ha): 8.1 | Postemergence herbicidal rating GLXMA ([20]; rate 0.032 kg/ha): 8.4 | Postemergence herbicidal rating ZEAMX ([21]; rate 0.016 kg/ha): 7.2 | Postemergence herbicidal rating ZEAMX ([21]; rate 0.032 kg/ha): 7.6 | Postemergence herbicidal rating XANST ([22]; rate 0.016 kg/ha): 9.0 | Postemergence herbicidal rating XANST ([22]; rate 0.032 kg/ha): 9.0 | Postemergence herbicidal rating DIGSA ([23]; rate 0.016 kg/ha): 5.3 | Postemergence herbicidal rating DIGSA ([23]; rate 0.032 kg/ha): 6.6 | Postemergence herbicidal rating ALMOY ([24]; rate 0.016 kg/ha): 2.3 | Postemergence herbicidal rating ALMOY ([24]; rate 0.032 kg/ha): 3.0

CCCCN(C)S(=O)(=O)NC(=O)c1cc(-n2c(=O)cc(C(F)(F)F)n(C)c2=O)c(F)cc1Cl [Example 83]
Preemergence herbicidal rating SETVI ([1]; rate 0.125 kg/ha): 3.0 | Preemergence herbicidal rating SETVI ([1]; rate 0.25 kg/ha): 6.0 | Preemergence herbicidal rating ECHCG ([2]; rate 0.125 kg/ha): 4.0 | Preemergence herbicidal rating ECHCG ([2]; rate 0.25 kg/ha): 5.0 | Preemergence herbicidal rating TRZAW ([3]; rate 0.125 kg/ha): 0.0 | Preemergence herbicidal rating TRZAW ([3]; rate 0.25 kg/ha): 0.0 | Preemergence herbicidal rating IPOHE ([4]; rate 0.125 kg/ha): 7.0 | Preemergence herbicidal rating IPOHE ([4]; rate 0.25 kg/ha): 8.0 | Preemergence herbicidal rating CHEAL ([5]; rate 0.125 kg/ha): 9.0 | Preemergence herbicidal rating CHEAL ([5]; rate 0.25 kg/ha): 9.0 | Preemergence herbicidal rating AMBEL ([6]; rate 0.125 kg/ha): 8.0 | Preemergence herbicidal rating AMBEL ([6]; rate 0.25 kg/ha): 8.0 | Preemergence herbicidal rating ABUTH ([7]; rate 0.125 kg/ha): 8.0 | Preemergence herbicidal rating ABUTH ([7]; rate 0.25 kg/ha): 9.0 | Preemergence herbicidal rating GLXMA ([8]; rate 0.125 kg/ha): 1.0 | Preemergence herbicidal rating GLXMA ([8]; rate 0.25 kg/ha): 4.0 | Preemergence herbicidal rating ZEAMX ([9]; rate 0.125 kg/ha): 0.0 | Preemergence herbicidal rating ZEAMX ([9]; rate 0.25 kg/ha): 2.0 | Preemergence herbicidal rating XANST ([10]; rate 0.125 kg/ha): 4.0 | Preemergence herbicidal rating XANST ([10]; rate 0.25 kg/ha): 5.0 | Preemergence herbicidal rating DIGSA ([11]; rate 0.125 kg/ha): 1.0 | Preemergence herbicidal rating DIGSA ([11]; rate 0.25 kg/ha): 9.0 | Preemergence herbicidal rating ALMOY ([12]; rate 0.125 kg/ha): 0.0 | Preemergence herbicidal rating ALMOY ([12]; rate 0.25 kg/ha): 0.0 | Postemergence herbicidal rating SETVI ([13]; rate 0.016 kg/ha): 7.0 | Postemergence herbicidal rating SETVI ([13]; rate 0.032 kg/ha): 8.0 | Postemergence herbicidal rating ECHCG ([14]; rate 0.016 kg/ha): 8.0 | Postemergence herbicidal rating ECHCG ([14]; rate 0.032 kg/ha): 8.0 | Postemergence herbicidal rating TRZAW ([15]; rate 0.016 kg/ha): 4.5 | Postemergence herbicidal rating TRZAW ([15]; rate 0.032 kg/ha): 5.5 | Postemergence herbicidal rating IPOHE ([16]; rate 0.016 kg/ha): 8.0 | Postemergence herbicidal rating IPOHE ([16]; rate 0.032 kg/ha): 9.0 | Postemergence herbicidal rating CHEAL ([17]; rate 0.016 kg/ha): 5.0 | Postemergence herbicidal rating CHEAL ([17]; rate 0.032 kg/ha): 5.0 | Postemergence herbicidal rating AMBEL ([18]; rate 0.016 kg/ha): 6.0 | Postemergence herbicidal rating AMBEL ([18]; rate 0.032 kg/ha): 8.0 | Postemergence herbicidal rating ABUTH ([19]; rate 0.016 kg/ha): 9.0 | Postemergence herbicidal rating ABUTH ([19]; rate 0.032 kg/ha): 9.0 | Postemergence herbicidal rating GLXMA ([20]; rate 0.016 kg/ha): 7.0 | Postemergence herbicidal rating GLXMA ([20]; rate 0.032 kg/ha): 7.5 | Postemergence herbicidal rating ZEAMX ([21]; rate 0.016 kg/ha): 5.5 | Postemergence herbicidal rating ZEAMX ([21]; rate 0.032 kg/ha): 6.0 | Postemergence herbicidal rating XANST ([22]; rate 0.016 kg/ha): 9.0 | Postemergence herbicidal rating XANST ([22]; rate 0.032 kg/ha): 9.0 | Postemergence herbicidal rating DIGSA ([23]; rate 0.016 kg/ha): 3.0 | Postemergence herbicidal rating DIGSA ([23]; rate 0.032 kg/ha): 4.0 | Postemergence herbicidal rating ALMOY ([24]; rate 0.016 kg/ha): 0.0 | Postemergence herbicidal rating ALMOY ([24]; rate 0.032 kg/ha): 1.0
